Read-outs that look alike come from different tables or passages of the source.
Assays:
S. aureus JAR060131 = assay type: cell-based, Staphylococcus aureus; settings: for IC99.9: approx. 1 × 10^6 CFU/ml S. aureus JAR, within 2 hrs (Table 2)
Procedure: Polypeptides of the invention preferably have an in vitro IC99.9 of at most 150 μM after 2 hours at 37° C. against at least one microbial species in the presence of 50% plasma. Said IC99.9 is preferably determined in accordance with a method for determining the antimicrobial activity as described herein in the Examples. Said method described in the Examples for determining antimicrobial activity of microbes not associated with biofilm involves the mixing of 50 microL of a solution of a polypeptide in PBS with addition of human plasma at a final concentration of 50% and 20 microL of bacterial suspension with 5×10^6 CFU per mL of PBS in a well. After incubation of this mixture for 2 hours at 37° C. under shaking conditions, a sample is used for assessment of the bacterial counts. The lowest peptide concentration at which there is 99.9% of bacteria killed, is called the inhibitory concentration (IC) 99.9. Bacterial counts can be determined by manual CFU counting. For determining antibacterial activity for instance 1×10^6 CFU/ml bacteria are used, for determining antifungal activity for instance 1×10^5 cells/ml are used.
(§1) Peptides were incubated with 1×10^6 CFU/ml of a mid-logarithmic culture of S. aureus JAR060131, methicillin resistant S. aureus (MRSA) LUH14616, Staphylococcus epidermidis RP62a, and Pseudomonas aeruginosa PAO1 in PBS without or with addition of pooled human plasma (Sanquin, Amsterdam, the Netherlands) at a final concentration of 50%. Antimicrobial activity is expressed as the 99.9% lethal concentration (LC99.9), i.e., the lowest peptide concentration which killed ≥99.9% of bacteria after 2 hours of incubation at 37° C. under shaking conditions.

[1] = system: S. aureus JAR060131 biofilm formation; assay type: cell-based, Staphylococcus aureus
Procedure: After solubilization with ethanol, the optical density at 590 nm is determined as a measure of biofilm mass.
Peptides were incubated with 1×10^8 CFU/ml of S. aureus JAR060131 in biofilm-adjusted BM2 in 96-wells polypropylene plates as described in Antimicrob Agents Chemother 2012; 56: 2696-2704. After 24 hours incubation at 37° C., planktonic bacteria were removed by four washes with PBS and biofilms were stained with crystal violet. After solubilization with ethanol, the optical density at 590 nm was determined as a measure of biofilm mass.
To assess the antibiofilm activity of the peptides in the presence of plasma, 96-wells polypropylene plates were coated with plasma by overnight incubation with 20% plasma at 4° C. Wells were washed once with sterile water and inoculated with S. aureus and peptides as described above.

A. niger PagsA-lux = assay: Effect on fungal growth; assay type: cell-based, Aspergillus niger; settings: for concentration inhibiting A. niger growth: 25% plasma, light micrographs only, 16 hours (FIG. 2)
Procedure: The effect of the peptides on fungal growth was assessed using Aspergillus niger. Peptides were incubated with 7.5×10^4 spores/ml of A. niger PagsA-lux in PBS without or with addition of pooled human plasma at a final concentration of 25%. As positive control, spores were treated with the antifungal caspofungin (Cancidas). Absorbance was measured over time and at 16 hours, fungal growth was visualized using light microscopy.

[2] = system: Staphylococcus epidermidis RP62a; assay type: cell-based; settings: 50% plasma
Procedure: as §1

[3] = system: UV-killed S. aureus JAR060131-induced IL-8 production; assay: S. aureus neutralization in whole human blood; assay type: cell-based; settings: for IC50: UV-killed S. aureus JAR060131-induced IL-8, blood from one donor
Procedure: (§2) Peptides were pre-incubated with 500 ng/ml LPS (E. coli 054) or 2 mg/ml LTA (S. aureus, endotoxin-free) or 1×10^9 CFU/ml of UV-killed S. aureus JAR060131 for 30 min at 37° C. Diluted whole human blood was stimulated with the peptide-LPS/LTA/S. aureus mixtures for 20 hours at 37° C. IL-12p40 and IL-8 levels in supernatants were determined using ELISA.

[4] = system: LPS (E. coli 054)-induced IL-12p40 production; assay: LPS neutralization in whole human blood; assay type: cell-based; settings: for IC90: LPS-induced IL-12p40, blood from two donors; for IC50: diluted whole human blood, 20 hours
From the text: (§3) The term “anti-inflammatory activity” of a polypeptide as used herein refers to inhibiting, reducing or preventing an inflammatory response in a subject that has been infected by microbes, e.g. bacteria, viruses, fungi, and/or parasites. Anti-inflammatory activity of polypeptides of the invention is achieved by inhibiting, reducing or preventing the release of pro-inflammatory microbial compounds, such as lipoteichoic acid (LTA), peptidoglycan (PG) and/or lipopolysaccharides (LPS). Anti-inflammatory activity can be measured by methods known in the art. Examples of such method are a LPS neutralization assay and a LTA neutralization assay as described in the Examples of this application. In such method, a polypeptide of the invention is mixed with a fixed concentration of LPS or LTA, such as 500 ng/ml LPS or 2 mg/ml LTA, and incubated for 30 min. Thereafter, these mixtures were added to diluted fresh human whole blood and 20 hours thereafter the level of cytokines (e.g. 1L-8 for LTA and 1L-12p40 for LPS) in the blood sample are measured by ELISA.
as §2

[5] = system: LTA (S. aureus)-induced IL-8 production; assay: LTA neutralization in whole human blood; assay type: cell-based; settings: for IC50: LTA-induced IL-8, blood from one donor
From the text: as §3, §2

[6] = JAR060131 biofilm formation, 24 h

| Substance | IC99.9 (S. aureus JAR060131; 50% plasma) [µM] | IC99.9 (S. aureus JAR060131; PBS) [µM] | further results |
| --- | --- | --- | --- |
| J LKKVWKRVARLIKRWFRYLRRPVR B [Peptide P150] | 25.6 | 1.6 |  |
| Ac-LKRVWKRVFKLLKRYWRQLKKPVR-NH2 [Peptide P148, J LKRVWKRVFKLLKRYWRQLKKPVR B] | 12.8 | 1.6 | IC50 [1, 6]: 12800 nM; concentration needed to inhibit biofilm formation for 50%, relative to OP-145 and P159 ([1]; plasma-coated wells (FIG. 3B)): two-fold higher concentration; concentration inhibiting A. niger growth (A. niger PagsA-lux): 102.4 µM; fold higher antifungal activity as compared to OP-145 (A. niger PagsA-lux; PBS): 4 fold; concentration inhibiting A. niger growth (by >99.9%) (A. niger PagsA-lux; PBS, optical density (FIG. 1)): 0.8 µM; higher bactericidal activity as compared to OP-145 [2]: 43 fold; fold higher concentration than OP-145 needed to inhibit S. aureus-induced IL-8 production for >50% [3]: 8 fold; IC50 [3]: 1.56 µM; IC90 [4]: 0.25 nM; IC50 [4]: 0.03 nM; fold increased LTA-neutralizing ability versus OP-145 [5]: 4 fold; IC50 [5]: 0.195 µM |
| J LRRLWKRLVKLWKRFFRYLKKPVR B [Peptide P156] | 51.2 | 1.6 |  |
| J LKKVWKRVFRILKRFLRYLKRPVR B (Ac-LKKVWKRVFRILKRFLRYLKRPVR-NH2) [Peptide P157] | 51.2 | 0.8 |  |
| J LRKLWKRLAKIIKRLYRYLRRPVR B (Ac-LRKLWKRLAKIIKRLYRYLRRPVR-NH2) [Peptide P154] | 51.2 | 1.6 |  |
| J LKKVYKRLARLLKRYIRYLRRPVR B (Ac-LKKVYKRLARLLKRYIRYLRRPVR-NH2) [Peptide P149] | 102.4 | 1.6 | fold increase of activity in the presence of plasma as compared to OP-145 (S. aureus JAR060131; 50% plasma): 2 fold |
| J LKKLYKRVAKIWKRWIRYLKKPVR B (Ac-LKKLYKRVAKIWKRWIRYLKKPVR-NH2) [Peptide P144] | 25.6 | 1.6 | fold increase of activity in the presence of plasma as compared to OP-145 (S. aureus JAR060131; 50% plasma): 8 fold |
| J LKKLWKRLARLLKRFIRQLRRPVR B (Ac-LKKLWKRLARLLKRFIRQLRRPVR-NH2) [Peptide P147] | 51.2 | 1.6 |  |
| J LKKLYKRLFKILKRILRYLRKPVR B (Ac-LKKLYKRLFKILKRILRYLRKPVR-NH2) [Peptide P146] | 51.2 | 1.6 |  |
| J LRKLWKRVVKIWKRYLRQLRRPVR B (Ac-LRKLWKRVVKIWKRYLRQLRRPVR-NH2) [Peptide P153] | 25.6 | 1.6 |  |
| J LKKVYKRVARLIKRLFRYLKRPVR B [Peptide P155] | 102.4 | 1.6 | fold increase of activity in the presence of plasma as compared to OP-145 (S. aureus JAR060131; 50% plasma): 2 fold |
| J LRRLYKRVFRLLKRWWRYLKRPVR B (Ac-LRRLYKRVFRLLKRWWRYLKRPVR-NH2) [Peptide P141] | 25.6 | 0.8 |  |
| J LRRLWKRVFKIIKRLFRQLKKPVR B (Ac-LRRLWKRVFKIIKRLFRQLKKPVR-NH2) [Peptide P163] | 25.6 | 0.8 |  |
| J LKKLWKRVFRIWKRIFRYLKRPVR B (Ac-LKKLWKRVFRIWKRIFRYLKRPVR-NH2) [Peptide P139] | 51.2 | 0.8 |  |
| J LKRLWKRLFKILKRYYRYLRRPVR B (Ac-LKRLWKRLFKILKRYYRYLRRPVR-NH2) [Peptide P162] | 25.6 | 1.6 |  |
| J LRRVYKRLFRLWKRIIRQLRRPVR B (Ac-LRRVYKRLFRLWKRIIRQLRRPVR-NH2) [Peptide P158] | 25.6 | 1.6 |  |
| J LRRLYKRVVKLWKRLFRQLRRPVR B (Ac-LRRLYKRVVKLWKRLFRQLRRPVR-NH2) [Peptide P143] | 51.2 | 1.6 | fold increase of activity in the presence of plasma as compared to OP-145 (S. aureus JAR060131; 50% plasma): 4 fold |
| Ac-LKRLYKRVFRLLKRYYRQLRRPVR-NH2 [Peptide P159, J LKRLYKRVFRLLKRYYRQLRRPVR B] | 12.8 | 1.6 | IC50 [1, 6]: 12800 nM; IC50 ([1]; plasma-coated wells (FIG. 3B), read-out: concentration inhibiting biofilm formation for 50%): 3200 nM; concentration inhibiting A. niger growth (A. niger PagsA-lux): 102.4 µM; fold lower antifungal activity as compared to OP-145 (A. niger PagsA-lux; PBS): 2 fold; higher bactericidal activity as compared to OP-145 [2]: 43 fold; IC50 [3]: 0.195 µM; IC90 [4]: 0.25 nM; IC50 [4]: 0.05 nM; fold increased LTA-neutralizing ability versus OP-145 [5]: 4 fold; IC50 [5]: 0.195 µM |
| J LRRLWKRLVRIIKRIYRQLKRPVR B (Ac-LRRLWKRLVRIIKRIYRQLKRPVR-NH2) [Peptide P140] | 25.6 | 1.6 |  |
| J LRRLWKRLVKILKRWFRYLRRPVR B (Ac-LRRLWKRLVKILKRWFRYLRRPVR-NH2) [Peptide P142] | 51.2 | 0.8 |  |
| J LRRVYKRLARLIKRYLRQLKKPVR B (Ac-LRRVYKRLARLIKRYLRQLKKPVR-NH2) [Peptide P152] | 25.6 | 1.6 |  |
| J LKKLYKRLFKLWKRLYRYLKKPVR B (Ac-LKKLYKRLFKLWKRLYRYLKKPVR-NH2) [Peptide P151] | 25.6 | 1.6 |  |
| J LRRVWKRVARIIKRLYRYLKRPVR B (Ac-LRRVWKRVARIIKRLYRYLKRPVR-NH2) [Peptide P161] | 25.6 | 1.6 |  |
| Ac-LKRLYKALAKLIKRLYRYLKKPVR-NH2 [Peptide P252, J LKRLYKALAKLIKRLYRYLKKPVR B] |  |  | LC99.9 (S. aureus JAR060131; 50% plasma, experiment 2013.01.15 (Table 6)): 51.2 µM; LC99.9 (S. aureus JAR060131; 50% plasma, experiment 2013.01.18 (Table 6)): 12.8 µM; LC99.9 (S. aureus JAR060131; PBS, experiment 2013.01.15 (Table 6)): 1.6 µM; LC99.9 (S. aureus JAR060131; PBS, experiment 2013.01.18 (Table 6)): 0.8 µM |
| J LKKLWKRLARLWKRIIRQLKKPVR B (Ac-LKKLWKRLARLWKRIIRQLKKPVR-NH2) [Peptide P160] | 25.6 | 1.6 |  |
